Laboratory results reported in patent US20230313296A1, “USING FLUORESCENT COLLAGEN α 1(I) AND α 2(I) mRNAs TO SCREEN DRUG CANDIDATES” (Florida State University Research Foundation, Inc., priority 2022, published 2023).

Tests used:
[1] = tested on: collagen ɑ1(I) 5′SL mRNA (2AP at G10); assay: Fluorescence measurement of the fluorescent ɑ1(I) 5′SL compound with test compound; format: binding, human; conditions: test compound added in micromolar concentrations; FIG. 5 top panel
Excerpt: When the first fluorescent compound has the fluorophore 2AP substituted at the G10 position of the collagen ɑ1(I) 5′ stem loop mRNA and the fluorescence intensity increases, this indicates the first fluorescent compound has bound to LARP6.
(§1) The fluorescence intensity of the 2AP and PC fluorophores depends on their environment in the RNA fold, and the environment changes upon LARP6 or test compound binding to the RNA. The increase in fluorescence is seen if a fluorophore rotates outwards from its position within the RNA. This was seen when LARP6 bound to the fluorescent ɑ1(I) 5′SL compound. The fluorescence decreases if a fluorophore is masked by the bound drug or LARP6.
(§2) Referring to FIG. 5, the fluorescence measurements were performed using epirubicin as the test compound or drug.

[2] = tested on: collagen ɑ2(I) 5′SL mRNA (PC at C37); assay: Fluorescence measurement of the fluorescent ɑ2(I) 5′SL compound with test compound; format: binding, human; conditions: increasing drug concentrations; FIG. 5 bottom panel
Excerpt: When the second fluorescent compound has the fluorophore PC at the C37 position of the collagen ɑ2(I) 5′ stem loop mRNA and the fluorescence intensity decreases when contacted with LARP6, this indicates binding of the second fluorescent compound to LARP6.
as §1, §2

[3] = tested on: complex of recombinant LA-domain of LARP6 with 5′SL RNA; assay: Gel mobility shift assay of LA-domain/5′SL RNA complex; format: binding; conditions: FIG. 6 lanes 4 and 5
Excerpt: FIG. 6 is a gel mobility shift assay showing free RNA (RNA) and complex of LA-domain bound to RNA (RNA/LA). Lane 1 contains RNA only. Lane 2 contains the RNA/LA complex in absence of the test compound. Lanes 3-5 show dissociation of RNA/LA complexes with the test compound.
The inhibitory effect of this test compound on LARP6 binding was directly tested by gel mobility shift experiments, the results of which are in FIG. 6. This assay confirms the formation of a protein/RNA complex by physically separating them from free RNA. Without the test compound, the recombinant LA-domain of LARP6 formed a complex with 5′SL RNA (FIG. 6, lane 2, RNA/LA). […] This proves that the fluorescent 5′SL RNA compounds can be used to identify molecules that interact with 5′SL RNA and that are competitors of LARP6 binding and may be antifibrotic drugs.

[4] = target: T1, recombinant LA-domain of LARP6 (Homo sapiens, UniProt Q9BRS8); assay: Fluorescence of the fluorescent ɑ2(I) 5′SL compound on LA-domain binding; conditions: increasing concentrations of recombinant LA-domain; FIG. 4
T1 construct: recombinant LA-domain of LARP6
T1 sequence (Q9BRS8 86-177 limits assumed): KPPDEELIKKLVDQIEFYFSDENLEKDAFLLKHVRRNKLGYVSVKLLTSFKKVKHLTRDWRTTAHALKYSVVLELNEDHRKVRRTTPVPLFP
Excerpt: This compound was less bright because its fluorophore has an emission that is about 7-fold less intense than that of the fluorescent ɑ1(I) 5′SL compound.
(§3) The decrease in the excitation spectrum (left, measured at 450 nm emission) and the emission spectrum (right, measured at 340 nm excitation) with increasing concentrations of recombinant LA-domain is shown in FIG. 5.

[5] = target: T1, recombinant LA-domain of LARP6; assay: Fluorescence of the fluorescent ɑ1(I) 5′SL compound on LA-domain binding; conditions: saturating amounts of LA-domain vs free compound; p<0.0001; FIG. 3
Protocol: The increase resulted from flipping of the 2AP at the G10 position out of the fold. The increase in intensity of the excitation spectrum (left, measured at 370 nm emission) and the emission spectrum (right, measured at 310 nm excitation) were apparent when increasing concentrations of recombinant LA-domain of LARP6 were added to the sensor. The LA-domain is necessary and sufficient for 5′SL RNA recognition by LARP6 and recapitulates the full size LARP6 binding.
The increase in intensity of fluorescence emission with binding of the LA-domain was quantified by measuring the fluorescence of free fluorescent ɑ1(I) 5′SL compound and the same compound bound with saturating amounts of the LA-domain.
The intensity increased about 2-fold with statistical significance of p<0.0001.

LARP6 LA-domain = target: T2, LARP6 LA-domain (UniProt Q9BRS8 Q9BRS8:86-177); assay: pyrrolo-cytidine fluorescence decreases with increasing LA-domain; conditions: label: pyrrolo-cytidine at position 37; 5' stem-loop
T2 sequence: T1 sequence (Q9BRS8 86-177 limits assumed)
Excerpt: as §3

COc1cccc2c1C(=O)c1c(O)c3c(c(O)c1C2=O)C[C@@](O)(C(=O)CO)C[C@@H]3O[C@H]1C[C@H](N)[C@@H](O)[C@H](C)O1 [epirubicin]
change of fluorescence intensity of the fluorescent ɑ1(I) 5′SL compound [1]: decreased in the concentration dependent manner | change of fluorescence intensity of the fluorescent ɑ2(I) 5′SL compound [2]: decrease in fluorescence with increasing drug concentrations | concentration of test compound at which formation of RNA/LA complex was diminished [3]: > 50 µM

fluorescent ɑ2(I) 5′SL compound: SEQ ID NO: 2 collagen ɑ2(I) 5′SL RNA with C37 nucleotide substituted with pyrrolo-cytidine (PC)
fluorescence response to LA-domain binding [4]: decreasing its fluorescence

fluorescent ɑ1(I) 5′SL compound: SEQ ID NO: 1 collagen ɑ1(I) 5′SL RNA with G10 nucleotide substituted with 2-amino-purine (2AP) (CCACAAAGAGUCUACAUGUCUAGGGUCUAGACAUGUUCAGCUUUGUGG; G10 replaced by 2-aminopurine; listed as Homo sapiens)
increase in intensity of fluorescent emission on binding of the LA-domain [5]: about 2 fold

CACAAGGAGUCUGCAUGUCUAAGUGCUAGACAUGCUCAGCUUUGUG (ssRNA, C37 substituted with pyrrolo-cytidine) [fluorescent collagen a2(I) 5'SL]
binding result (LARP6 LA-domain): binds
